Test results reported in patent US20100099088A1, “RELIABLE DETECTION OF VANCOMYCIN-INTERMEDIATE STAPHYLOCOCCUS AUREUS” (priority 2006, published 2010).
Read-outs that look alike come from different tables or passages of the source.

Legend:
[1] = tested on: Staphylococcus aureus strains (MRSA, hVISA/VISA, in vitro-selected); assay: CLSI-approved (standard) Etest, vancomycin MIC, 0.5 McFarland inoculum; assay type: cell-based; settings: for MIC: Staphylococcus aureus; for CLSI Etest category: key: S = sensitive; I = intermediate; R = resistant
Procedure: Vancomycin MICs were determined using standard Etest methods. Briefly, colonies from a fresh overnight plate were resuspended in saline to a turbidity equivalent to 0.5 McFarland units. This suspension was swabbed onto Mueller-Hinton agar plates, allowed to dry, and overlaid with a Vancomycin Etest strip (AB Biodisk). Plates were incubated at 37° C. for 48 h and interpreted. […] For some MRSA strains, the macromethod Etest was also applied, using an inoculum equivalent to 2 McFarland units on Brain-Heart Infusion agar plates.

[2] = tested on: SAV2095 (SEQ ID NO.:1) expression in S. aureus; assay: SAV2095 homologue mRNA expression by qRT-PCR after growth in subinhibitory vancomycin; assay type: cell-based, Staphylococcus aureus
Procedure: Overnight cultures of strains were diluted 1/100 in tryptic soy broth containing either 0 (for all strains), 1 (for selected MRSA), or 3 (for selected VISA) mg/L vancomycin and grown to mid-log phase. Cells from 1 mL culture were harvested and treated with RNAProtect (Qiagen). Cells were subsequently treated with lysostaphin for 30 min at 37° C., and total RNA was isolated from each sample and each condition using the RNeasy Kit (Qiagen). Samples were then treated with Turbo DNA-free (Ambion, Austin, Tex.) to remove any contaminating genomic DNA. RNA quantity and quality was assessed using an Agilent Technologies 2100 bioanalyzer and RNA 6000 Nano LabChip kit (Agilent, Mountain View, Calif.). Complementary DNA (cDNA) was generated from 688 ng of total RNA using a random primer hexamer following the protocol for Superscript II (Invitrogen, Carlsbad, Calif.) in a 20 μL volume.
Equal amounts (34 ng) of cDNA were run in triplicate and amplified in a 15 μl reaction containing 7.5 μL of 2× Universal PCR Master Mix (Applied Biosystems, Foster City, Calif.), 10 nM of Z-tailed forward primer, 100 nM of reverse primer, 100 nM of Amplifluor Uniprimer probe (Chemicon, Temecula, Calif.), and 1 μL of DNA target. Moreover, no-template controls were used as recommended. The mixture was incubated at 50° C. for 2 min, at 95° C. for 4 min, and then cycled at 95° C. for 15 sec and at 55° C. for 40 sec 55 times using the Applied Biosystems Prism 7900 Sequence Detector. Amplification efficiencies were validated and normalized to expression of the 16S rRNA gene as a standard, and quantity of target and standard genes were calculated according to a standard curve. Primers were designed using Primer Express 2.0 (Applied Biosystems) and their sequence data are the following: for SAV2095, forward, 5-Ztail-[…]-3, reverse, 5-[…]-3; and for 16S rRNA, forward, 5-Ztail-[…]-3, reverse, 5-GCTTAAGGGTTGCGCTCGT-3. Amplicons were detected using the Amplifluor™ UniPrimerr™ system where forward primers used contained the 5′ Z sequence ACTGAACCTGACCGTACA. As it is appreciated by a person skilled in the art, it is to be understood herein that other primers may be used for amplifying and detecting SAV2095 without departing from the scope of the invention. A person skilled in the art knows how to design primers for any given amplification assay. For example, in a multiplex assay, primers would need to have similar melting temperatures and low complementarity, etc.

[3] = tested on: Staphylococcus aureus strains (MRSA, hVISA/VISA); settings: cited from earlier work; for Modified Etest category: key: S = sensitive; I = intermediate; R = resistant
[4] = tested on: Staphylococcus aureus strains (MRSA, hVISA/VISA, in vitro-selected); settings: cited from earlier work; for CLSI Etest category: key: S = sensitive; I = intermediate; R = resistant
[5] = strain 160013 (NRS283), 2 McF inoculum
[6] = strain BR 5 (NRS56), 2 McF inoculum
[7] = strain HIP07930 (NRS22), 2 McF inoculum
[8] = strain HIP09433 (NRS27), 2 McF inoculum
[9] = strain HIP09662 (NRS28), 2 McF inoculum
[10] = strain HIP12864 (NRS402), 2 McF inoculum
[11] = strain LIM 1 (NRS35), 2 McF inoculum
[12] = strain LIM 3 (NRS37), 2 McF inoculum
[13] = strain LY-1999 0620-01 (NRS63), 2 McF inoculum
[14] = strain LY-1999 0620-02 (NRS64), 2 McF inoculum
[15] = strain Mu3 (NRS2), 2 McF inoculum
[16] = strain Mu50 (NRS1), 2 McF inoculum
[17] = strain SA MER (NRS11), 2 McF inoculum
[18] = strain SA MER-S20 (NRS14), 2 McF inoculum
[19] = strain 160013 (NRS283), 0.5 McF inoculum
[20] = strain BR 5 (NRS56), 0.5 McF inoculum
[21] = strain HIP07930 (NRS22), 0.5 McF inoculum
[22] = strain HIP09433 (NRS27), 0.5 McF inoculum
[23] = strain HIP09662 (NRS28), 0.5 McF inoculum
[24] = strain HIP12864 (NRS402), 0.5 McF inoculum
[25] = strain LIM 1 (NRS35), 0.5 McF inoculum
[26] = strain LIM 3 (NRS37), 0.5 McF inoculum
[27] = strain LY-1999 0620-01 (NRS63), 0.5 McF inoculum
[28] = strain LY-1999 0620-02 (NRS64), 0.5 McF inoculum
[29] = strain Mu3 (NRS2), 0.5 McF inoculum
[30] = strain Mu50 (NRS1), 0.5 McF inoculum
[31] = strain NRS118, 0.5 McF inoculum
[32] = strain SA MER (NRS11), 0.5 McF inoculum
[33] = strain SA MER-S20 (NRS14), 0.5 McF inoculum

CN[C@H](CC(C)C)C(=O)N[C@H]1C(=O)N[C@@H](CC(N)=O)C(=O)N[C@H]2C(=O)N[C@H]3C(=O)N[C@H](C(=O)N[C@H](C(=O)O)c4cc(O)cc(O)c4-c4cc3ccc4O)[C@H](O)c3ccc(c(Cl)c3)Oc3cc2cc(c3O[C@@H]2O[C@H](CO)[C@@H](O)[C@H](O)[C@H]2O[C@H]2C[C@](C)(N)[C@H](O)[C@H](C)O2)Oc2ccc(cc2Cl)[C@H]1O [vancomycin]
24 µg/mL: Modified Etest MIC ([3]; strain NRS118, 2 McF inoculum) | Modified Etest MIC [3, 18]
20 µg/mL: MIC ([1]; in vitro strain C3V24 derived from CMRSA-3, read-out: CLSI Etest MIC)
9 µg/mL: MIC ([1]; in vitro strain C2V8 derived from CMRSA-2, read-out: CLSI Etest MIC)
30 µg/mL: MIC ([1]; in vitro strain C2V24 derived from CMRSA-2, read-out: CLSI Etest MIC)
S: CLSI Etest category ([1]; in vitro strain C3V4 derived from CMRSA-3) | CLSI Etest category ([1]; strain CMRSA-1 (MRSA), 0.5 McF inoculum) | CLSI Etest category ([1]; strain CMRSA-2 (MRSA), 0.5 McF inoculum) | CLSI Etest category ([1]; strain CMRSA-3 (MRSA), 0.5 McF inoculum) | CLSI Etest category ([1]; strain CMRSA-4 (MRSA), 0.5 McF inoculum) | Modified Etest category [3, 11] | CLSI Etest category [4, 23] | CLSI Etest category [4, 25] | CLSI Etest category [4, 28] | CLSI Etest category [4, 32]
1.5 µg/mL: MIC ([1]; ATCC 29213 / MRSA / VISA, control strain S. aureus ATCC29213, read-out: MIC (standard Etest)) | MIC ([1]; strain CMRSA-1 (MRSA), 0.5 McF inoculum, read-out: CLSI Etest MIC) | MIC ([1]; strain CMRSA-2 (MRSA), 0.5 McF inoculum, read-out: CLSI Etest MIC) | CLSI Etest MIC [4, 28]
8 µg/mL: Modified Etest MIC [3, 5] | Modified Etest MIC [3, 7] | Modified Etest MIC [3, 8] | Modified Etest MIC [3, 9] | Modified Etest MIC [3, 17] | CLSI Etest MIC [4, 20] | CLSI Etest MIC [4, 24] | CLSI Etest MIC [4, 27] | CLSI Etest MIC [4, 30] | CLSI Etest MIC [4, 31] | CLSI Etest MIC [4, 33]
I: CLSI Etest category ([1]; in vitro strain C1V4 derived from CMRSA-1) | CLSI Etest category ([1]; in vitro strain C1V8 derived from CMRSA-1) | CLSI Etest category ([1]; in vitro strain C1V30 derived from CMRSA-1) | CLSI Etest category ([1]; in vitro strain C2V4 derived from CMRSA-2) | CLSI Etest category ([1]; in vitro strain C2V8 derived from CMRSA-2) | CLSI Etest category ([1]; in vitro strain C2V24 derived from CMRSA-2) | CLSI Etest category ([1]; in vitro strain C3V8 derived from CMRSA-3) | CLSI Etest category ([1]; in vitro strain C3V24 derived from CMRSA-3) | CLSI Etest category ([1]; in vitro strain C4V8 derived from CMRSA-4) | CLSI Etest category ([1]; in vitro strain C4V20 derived from CMRSA-4) | Modified Etest category [3, 5] | Modified Etest category [3, 6] | Modified Etest category [3, 7] | Modified Etest category [3, 8] | Modified Etest category [3, 9] | Modified Etest category [3, 12] | Modified Etest category [3, 13] | Modified Etest category [3, 14] | Modified Etest category [3, 15] | Modified Etest category [3, 16] | Modified Etest category ([3]; strain NRS118, 2 McF inoculum) | Modified Etest category [3, 17] | Modified Etest category [3, 18] | CLSI Etest category [4, 19] | CLSI Etest category [4, 20] | CLSI Etest category [4, 21] | CLSI Etest category [4, 22] | CLSI Etest category [4, 24] | CLSI Etest category [4, 26] | CLSI Etest category [4, 27] | CLSI Etest category [4, 29] | CLSI Etest category [4, 30] | CLSI Etest category [4, 31] | CLSI Etest category [4, 33]
R: Modified Etest category [3, 10]
5 µg/mL: MIC ([1]; in vitro strain C4V8 derived from CMRSA-4, read-out: CLSI Etest MIC) | MIC ([1]; read-out: CLSI Etest MIC, in vitro strain C1V4 derived from CMRSA-1)
16 µg/mL: MIC ([1]; in vitro strain C1V30 derived from CMRSA-1, read-out: CLSI Etest MIC) | Modified Etest MIC [3, 6] | Modified Etest MIC [3, 13]
does not consistently increase: Effect on SAV2095 expression level ([2]; MRSA strains grown with subinhibitory vancomycin 1 mg/L)
12 µg/mL: Modified Etest MIC [3, 16]
10 µg/mL: MIC ([1]; in vitro strain C1V8 derived from CMRSA-1, read-out: CLSI Etest MIC)
3 µg/mL: CLSI Etest MIC [4, 23]
4 µg/mL: Modified Etest MIC [3, 11] | CLSI Etest MIC [4, 19] | CLSI Etest MIC [4, 21] | CLSI Etest MIC [4, 22] | CLSI Etest MIC [4, 26] | CLSI Etest MIC [4, 29]
2 µg/mL: CLSI Etest MIC [4, 25] | CLSI Etest MIC [4, 32]
increased expression of SAV2095: Effect on SAV2095 expression level ([2]; VISA strains grown with subinhibitory vancomycin 3 mg/L, p<0.05, listed as Vn)
consistently increased further: Effect on SAV2095 expression level ([2]; VISA strains grown with subinhibitory vancomycin 3 mg/L, p<0.05)
1 µg/mL: MIC ([1]; strain CMRSA-4 (MRSA), 0.5 McF inoculum, read-out: CLSI Etest MIC)
not in MRSA: Effect on SAV2095 expression level ([2]; MRSA strains grown with subinhibitory vancomycin 1 mg/L, listed as Vn)
48 µg/mL: Modified Etest MIC [3, 10]
6 µg/mL: MIC ([1]; in vitro strain C2V4 derived from CMRSA-2, read-out: CLSI Etest MIC) | Modified Etest MIC [3, 12] | Modified Etest MIC [3, 14] | Modified Etest MIC [3, 15]
